Data set [1] relates to Escherichia coli. The data set is described as follows: standard disc-plate method, zone of inhibition. The settings on record: Table I, read-out: Zone of Inhibition (diameter in mm). The class given is cell-based. From the text:
(§1) The in vitro antimicrobial activity of the 3-halo cephalosporins is illustrated by the data in the following tables. Table I contains the antimicrobial activity for 7-[2-(2-thienyl)acetamido]-3-chloro-3-cephem-4-carboxylic acid obtained in the standard Disc-plate method. The numerical values are the diameter in millimeters of the zones of inhibition observed with the named organisms.
(§2) In Table IV below, the in vitro antimicrobial activity of 7-[2-(2-thienyl)acetamido]-3-bromo-3-cephem-4-carboxylic acid is presented for several illustrative microorganisms. The data presented were obtained in the standard disc-plate method with the numerical values recording the diameter in millimeters of the zones of inhibition observed with the named microorganisms.

A further data set deals with Staphylococcus aureus. As to the kind of experiment: standard disc-plate method, zone of inhibition. The class given is cell-based. The settings on record: Table I, read-out: Zone of Inhibition (diameter in mm).
Description: as §1, §2

For a further data set, the system named is Proteus vulgaris. The data set is described as follows: standard disc-plate method, zone of inhibition. The class given is cell-based. The settings on record: 1.0 mg/ml, Table I, read-out: Zone of Inhibition (diameter in mm).
Description: as §1, §2

In the next data set the test system is Sarcina lutea. The data set is described as follows: standard disc-plate method, zone of inhibition. In kind it is cell-based. The settings on record: Micrococcus luteus, Table I, read-out: Zone of Inhibition (diameter in mm).
Description: as §1, §2

A further data set relates to Bacillus subtilis. The data set is described as follows: standard disc-plate method, zone of inhibition. The class given is cell-based. The note with it: Table I, read-out: Zone of Inhibition (diameter in mm).
Description: as §1, §2

Data set [2] has as its system Klebsiella pneumoniae. The data set is described as follows: standard disc-plate method, zone of inhibition. In kind it is cell-based. The settings on record: Table I, read-out: Zone of Inhibition (diameter in mm).
Description: as §1, §2

The test system of a further data set is Mycobacterium avium. As to the kind of experiment: standard disc-plate method, zone of inhibition. The class given is cell-based. The note with it: 1.0 mg/ml, Table I, read-out: Zone of Inhibition (diameter in mm).
Description: as §1, §2

Data set [3] deals with Methicillin resistant Staphylococcus. The data set is described as follows: Gradient Plate technique, MIC. The class given is cell-based. The settings on record: Clinical Isolate X400 (methicillin resistant).
For data set [4], the system named is Escherichia coli. As to the kind of experiment: Gradient Plate technique, MIC. In kind it is cell-based. The settings on record: read-out: Minimum Inhibitory Concentration. From the text: (§3) The following Table II lists the minimum inhibitory concentration (MIC) for 7-[2-(2-thienyl)acetamido]-3-chloro-3-cephem-4-carboxylic acid against penicillin resistant Staphylococcus both in the presence of and absence of serum. The MIC values were obtained by the Gradient Plate technique carried out essentially as described by Bryson and Szybalski, Science, 116, 45 (1952).
(§4) In Table III, below, the MIC values for the test compound of Tables I and II against representative gram-negative organisms is presented. The data were obtained by the Gradient Plate technique.
(§5) The minimum inhibitory concentrations for 7-[2-(2-thienyl)acetamido]-3-bromo-3-cephem-4-carboxylic acid against representative gram-negative bacteria is presented in Table VI. The data were obtained by the Gradient Plate Method.
(§6) Tables VII and VIII list the minimum inhibitory concentrations of the test compound effective against representative penicillin resistant Staphylococcus strains, while […] the MIC values obtained against representative gram-negative microorganisms. The data were obtained by the Gradient Plate method.

The next data set relates to Pseudomonas aeruginosa. As to the kind of experiment: Gradient Plate technique, MIC. In kind it is cell-based. The note with it: read-out: Minimum Inhibitory Concentration.
Description: as §3, §4, §5, §6

Another data set relates to Shigella sp. As to the kind of experiment: Gradient Plate technique, MIC. The class given is cell-based. The note with it: read-out: Minimum Inhibitory Concentration.
Description: as §3, §4, §5, §6

For a further data set, the system named is Serratia marcescens. The data set is described as follows: Gradient Plate technique, MIC. In kind it is cell-based. The settings on record: read-out: Minimum Inhibitory Concentration.
Description: as §3, §4, §5, §6

The next data set deals with Aerobacter aerogenes. The data set is described as follows: Gradient Plate technique, MIC. In kind it is cell-based. The settings on record: Klebsiella aerogenes, read-out: Minimum Inhibitory Concentration.
Description: as §3, §4, §5, §6

In another data set the test system is Salmonella heidelberg. The data set is described as follows: Gradient Plate technique, MIC. The note with it: Salmonella enterica, read-out: Minimum Inhibitory Concentration. The class given is cell-based.
Description: as §3, §4, §5, §6

Data set [5] deals with Klebsiella pneumoniae. As to the kind of experiment: Gradient Plate technique, MIC. In kind it is cell-based. The note with it: read-out: Minimum Inhibitory Concentration.
Description: as §3, §4, §5, §6

Data set [6] relates to Pseudomonas solanacearcum. As to the kind of experiment: standard disc-plate method, zone of inhibition. The settings on record: Pseudomonas, Table I, read-out: Zone of Inhibition (diameter in mm). The class given is cell-based.
Description: as §1, §2

A further data set has as its system Salmonella gallinarum. The data set is described as follows: standard disc-plate method, zone of inhibition. In kind it is cell-based. The note with it: Salmonella enterica, GALLINARUM, Table I, read-out: Zone of Inhibition (diameter in mm).
Description: as §1, §2

The subject of data set [7] is Penicillin Resistant Staphylococcus. The data set is described as follows: Gradient Plate technique, MIC. In kind it is cell-based. The settings on record: read-out: Minimum Inhibitory Concentration. From the text:
The following Table II lists the minimum inhibitory concentration (MIC) for 7-[2-(2-thienyl)acetamido]-3-chloro-3-cephem-4-carboxylic acid against penicillin resistant Staphylococcus both in the presence of and absence of serum. The MIC values were obtained by the Gradient Plate technique carried out essentially as described by Bryson and Szybalski, Science, 116, 45 (1952). […]

The subject of data set [8] is Escherichia coli. The data set is described as follows: standard disc-plate method, zone of inhibition. The class given is cell-based. Details: key: H: hazy zone of inhibition; Tr: trace zone of inhibition. The note with it: 0.01 mg/ml; Table I.
Description: as §1, §2

The next data set in a line: Electrometric titration. The class given is physicochemical. The note with it: 66% aqueous dmf; only or first pKa; read-out: pKa.

Values after ≈ are worked out from the molar mass of the structure shown. Where two headings read alike, the source gives them in different places. Some results are limits rather than exact numbers.

As usually defined, the zone of inhibition is the size of the clear area around the sample on an inoculated plate. In general, pKa refers to the negative logarithm of the acid dissociation constant.

In the case of `O=C(Cc1cccs1)NC1C(=O)N2C(C(=O)O)=C(Cl)CS[C@H]12` (stereo partly drawn) [7-[2-(2-Thienyl)acetamido]-3-chloro-3-cephem-4-carboxylic acid], the zone of inhibition at 100 µg/mL amounted to 19 mm in the data set on Escherichia coli [1] (0.1 mg/ml); 29 mm with Staphylococcus aureus (0.1 mg/ml); 28 mm with Sarcina lutea (0.1 mg/ml); 40 mm in the data set on Bacillus subtilis (0.1 mg/ml); 27 mm with Klebsiella pneumoniae [2] (0.1 mg/ml); 21 mm in data set [6] (0.1 mg/ml). Besides, the zone of inhibition at 100 µg/mL with Salmonella gallinarum (0.1 mg/ml) amounted to 22 mm. Moreover, the zone of inhibition at 1000 µg/mL in the data set on Escherichia coli [1] (1.0 mg/ml) was 24 mm; with Staphylococcus aureus (1.0 mg/ml) it was 31 mm; in the data set on Proteus vulgaris it was 17 mm; in the data set on Sarcina lutea (1.0 mg/ml), 37 mm; in the data set on Bacillus subtilis (1.0 mg/ml), 48 mm; in the data set on Klebsiella pneumoniae [2] (1.0 mg/ml), 36 mm. The zone of inhibition at 1000 µg/mL in the data set on Mycobacterium avium was 14 mm; in [6] (1.0 mg/ml), 28 mm; in the data set with Salmonella gallinarum (1.0 mg/ml), 32 mm. Further, the zone of inhibition at 10 µg/mL is 20 mm in the data set on Staphylococcus aureus (0.01 mg/ml), 21 mm with Sarcina lutea (0.01 mg/ml), 24 mm in the data set on Bacillus subtilis (0.01 mg/ml) and 13 mm with Klebsiella pneumoniae [2] (0.01 mg/ml). Further, the “Minimum Inhibitory Concentration” value in data set [3] (Serum) is greater than 20 µg/mL. The MIC is greater than 20 µg/mL in [3] (Staphylococcus, No Serum, read-out: Minimum Inhibitory Concentration); 18.5 µg/mL (≈ 51.6 µM) in the data set with Escherichia coli [4]; greater than 200 µg/mL with Pseudomonas aeruginosa; 25 µg/mL (≈ 69.7 µM) with Shigella sp.; greater than 200 µg/mL in the data set on Serratia marcescens; 0.8 µg/mL (≈ 2.23 µM) in the data set on Aerobacter aerogenes. For the same compound, the MIC is 0.8 µg/mL (≈ 2.23 µM) with Salmonella heidelberg; 0.6 µg/mL (≈ 1.67 µM) in the data set with Klebsiella pneumoniae [5]; 8.4 µg/mL (≈ 23.4 µM) in [7] (Clinical Isolate V 32, No Serum); greater than 20 µg/mL in data set [7] (Clinical Isolate V 32, Serum); 5 µg/mL (≈ 13.9 µM) in data set [7] (Clinical Isolate V 41, No Serum); 7 µg/mL (≈ 19.5 µM) in [7] (Clinical Isolate V 41, Serum). Further, the MIC in data set [7] (Clinical Isolate V 84, No Serum) is 0.8 µg/mL (≈ 2.23 µM); in data set [7] (Clinical Isolate V 84, Serum), 1 µg/mL (≈ 2.79 µM); in data set [7] (Clinical Isolate X 1.1, No Serum), 0.2 µg/mL (≈ 0.557 µM); in data set [7] (Clinical Isolate X 1.1, Serum), less than 0.1 µg/mL. In addition, in the data set on Escherichia coli [8], the “Zone of Inhibition (diameter in mm)” value is on record as “Tr”.
For `CC(=O)NC1C(=O)N2C(C(=O)OCc3ccc([N+](=O)[O-])cc3)=C(O)CS[C@H]12` (stereo partly drawn) [Example 13, p-Nitrobenzyl 7-acetamido-3-hydroxy-3-cephem-4-carboxylate], the pKa in “Electrometric titration” is 5.9.
